Assay: xn = mol fraction of the nth substance listed, in the solute-free solvent

O=C1CCc2ccc(OCCCCN3CCN(c4cccc(Cl)c4Cl)CC3)cc2N1 + CCC(C)=O + CC(C)=O
solubility (g/100 g solution)
Details | 278.15 K | 283.15 K | 288.15 K | 293.15 K | 298.15 K | 303.15 K | 308.15 K | 313.15 K | 318.15 K
x2 = 0.1 | 0.779 | 0.97 | 1.13 | 1.44 | 1.75 | 2.16 | 2.61 | 3.34 | 4.18
x2 = 0.2 | 0.882 | 1.07 | 1.25 | 1.61 | 1.94 | 2.32 | 2.83 | 3.58 | 4.41
x2 = 0.3 | 0.948 | 1.16 | 1.34 | 1.71 | 2.09 | 2.46 | 3.02 | 3.74 | 4.62
x2 = 0.4 | 1.01 | 1.22 | 1.43 | 1.78 | 2.19 | 2.59 | 3.21 | 3.88 | 4.8
x2 = 0.5 | 1.05 | 1.28 | 1.5 | 1.86 | 2.28 | 2.71 | 3.34 | 4.01 | 4.96
x2 = 0.6 | 1.09 | 1.34 | 1.57 | 1.93 | 2.36 | 2.82 | 3.46 | 4.13 | 5.1
x2 = 0.7 | 1.12 | 1.38 | 1.63 | 1.99 | 2.43 | 2.91 | 3.54 | 4.23 | 5.21
x2 = 0.8 | 1.15 | 1.43 | 1.68 | 2.06 | 2.49 | 2.99 | 3.62 | 4.3 | 5.27
x2 = 0.9 | 1.17 | 1.47 | 1.72 | 2.12 | 2.54 | 3.06 | 3.68 | 4.35 | 5.31

CCCCOc1ccc(C(=O)CCN2CCCCC2)cc1.Cl + CO + C1CCOC1
solubility (g/100 g solution)
Details | 278.15 K | 283.15 K | 288.15 K | 293.15 K | 298.15 K | 303.15 K | 308.15 K | 313.15 K | 318.15 K | 323.15 K
x2 = 0.1 | 3.9 | 4.4 | 4.97 | 5.64 | 6.4 | 7.23 | 8.14 | 9.22 | 10.4 | 11.6
x2 = 0.2 | 7.86 | 8.84 | 9.92 | 11.2 | 12.4 | 13.9 | 15.5 | 17.2 | 19.1 | 21.1
x2 = 0.3 | 12 | 13.4 | 14.9 | 16.6 | 18.4 | 20.5 | 22.6 | 24.9 | 27.4 | 30
x2 = 0.4 | 16.3 | 18.1 | 20.1 | 22.3 | 24.6 | 27 | 29.6 | 32.5 | 35.4 | 38.5
x2 = 0.5 | 20.8 | 23.1 | 25.4 | 28 | 30.6 | 33.5 | 36.5 | 39.6 | 42.8 | 46.2
x2 = 0.6 | 25.5 | 28.2 | 30.8 | 33.7 | 36.7 | 39.8 | 43 | 46.4 | 49.9 | 53.3
x2 = 0.7 | 30.6 | 33.5 | 36.5 | 39.6 | 42.9 | 46.2 | 49.6 | 53 | 56.5 | 59.9
x2 = 0.8 | 35.7 | 38.9 | 42 | 45.4 | 48.7 | 52.1 | 55.5 | 59 | 62.5 | 65.8
x2 = 0.9 | 41.3 | 44.6 | 48 | 51.3 | 54.7 | 58.1 | 61.5 | 64.9 | 68 | 71.3

Nc1cncc(Cl)n1 + CCO + O
solubility (g/100 g solution)
Details | 278.15 K | 283.15 K | 288.15 K | 293.15 K | 298.15 K | 303.15 K | 308.15 K | 313.15 K | 318.15 K | 323.15 K
x2 = 0.04165 | 0.0437 | 0.053 | 0.0624 | 0.075 | 0.0883 | 0.106 | 0.124 | 0.145 | 0.168 | 0.197
x2 = 0.08908 | 0.071 | 0.0856 | 0.101 | 0.12 | 0.141 | 0.17 | 0.198 | 0.23 | 0.267 | 0.313
x2 = 0.1436 | 0.11 | 0.132 | 0.155 | 0.185 | 0.217 | 0.259 | 0.302 | 0.35 | 0.405 | 0.476
x2 = 0.2068 | 0.161 | 0.193 | 0.226 | 0.27 | 0.316 | 0.376 | 0.438 | 0.508 | 0.588 | 0.691
x2 = 0.2812 | 0.21 | 0.253 | 0.299 | 0.358 | 0.419 | 0.501 | 0.589 | 0.681 | 0.792 | 0.934
x2 = 0.3698 | 0.277 | 0.332 | 0.392 | 0.469 | 0.548 | 0.654 | 0.765 | 0.889 | 1.03 | 1.23
x2 = 0.4772 | 0.337 | 0.404 | 0.479 | 0.573 | 0.677 | 0.806 | 0.943 | 1.1 | 1.28 | 1.51
x2 = 0.6101 | 0.374 | 0.451 | 0.544 | 0.654 | 0.776 | 0.918 | 1.08 | 1.26 | 1.48 | 1.77
x2 = 0.7788 | 0.399 | 0.482 | 0.579 | 0.7 | 0.826 | 0.99 | 1.16 | 1.38 | 1.62 | 1.94

COC1=CC(=O)CC(C)C12Oc1c(Cl)c(OC)cc(OC)c1C2=O (stereo not drawn) + CC(=O)CC(C)C + CC(C)O
solubility (g/100 g solution)
Details | 283.15 K | 288.15 K | 293.15 K | 298.15 K | 303.15 K | 308.15 K | 313.15 K | 318.15 K | 323.15 K
x2 = 0.1 | 0.154 | 0.185 | 0.226 | 0.307 | 0.335 | 0.47 | 0.53 | 0.62 | 0.76
x2 = 0.2 | 0.251 | 0.304 | 0.345 | 0.441 | 0.514 | 0.683 | 0.713 | 0.852 | 1.01
x2 = 0.3 | 0.353 | 0.405 | 0.473 | 0.568 | 0.67 | 0.869 | 0.938 | 1.11 | 1.3
x2 = 0.4 | 0.433 | 0.519 | 0.591 | 0.73 | 0.812 | 1.04 | 1.09 | 1.27 | 1.46
x2 = 0.5 | 0.533 | 0.589 | 0.688 | 0.841 | 0.939 | 1.19 | 1.23 | 1.42 | 1.62
x2 = 0.6 | 0.595 | 0.655 | 0.751 | 0.902 | 1.03 | 1.27 | 1.33 | 1.5 | 1.72
x2 = 0.7 | 0.642 | 0.758 | 0.833 | 0.943 | 1.08 | 1.31 | 1.37 | 1.58 | 1.77
x2 = 0.8 | 0.675 | 0.753 | 0.823 | 0.973 | 1.1 | 1.33 | 1.39 | 1.59 | 1.79
x2 = 0.9 | 0.675 | 0.727 | 0.817 | 0.955 | 1.1 | 1.29 | 1.35 | 1.51 | 1.68

O=C(O)c1ccc(C(=O)O)o1 + C1COCCO1 + O
solubility (g/100 g solution)
Details | 303.15 K | 308.15 K | 313.15 K | 318.15 K | 323.15 K | 328.15 K | 333.15 K | 338.15 K | 343.15 K
x2 = 0.1 | 1.85 | 1.98 | 2.15 | 2.38 | 2.63 | 2.92 | 3.24 | 3.48 | 3.73
x2 = 0.2 | 3.44 | 3.54 | 3.81 | 4.02 | 4.28 | 4.56 | 4.78 | 5.12 | 5.5
x2 = 0.3 | 3.8 | 4.14 | 4.34 | 4.76 | 5.21 | 5.62 | 6.07 | 6.46 | 7.05
x2 = 0.4 | 4.76 | 5.23 | 5.55 | 5.79 | 6.04 | 6.37 | 6.72 | 7.27 | 7.87
x2 = 0.5 | 4.37 | 4.77 | 5.03 | 5.38 | 5.75 | 6.1 | 6.48 | 6.97 | 7.5
x2 = 0.6 | 3.77 | 4.11 | 4.39 | 4.66 | 5 | 5.3 | 5.63 | 6.04 | 6.44
x2 = 0.7 | 3.03 | 3.32 | 3.51 | 3.71 | 3.94 | 4.25 | 4.48 | 4.89 | 5.36
x2 = 0.8 | 2.38 | 2.62 | 2.75 | 2.96 | 3.11 | 3.32 | 3.55 | 3.81 | 4.1
x2 = 0.9 | 1.3 | 1.42 | 1.54 | 1.73 | 1.93 | 2.11 | 2.35 | 2.61 | 2.87

O=C(O)c1ccc(C(=O)O)o1 + C1CCOC1 + O
solubility (g/100 g solution)
Details | 293.15 K | 298.15 K | 303.15 K | 308.15 K | 313.15 K | 318.15 K | 323.15 K | 328.15 K | 333.15 K
x2 = 0.1 | 1.53 | 1.63 | 1.73 | 1.9 | 2.08 | 2.35 | 2.63 | 2.88 | 3.15
x2 = 0.2 | 3.7 | 3.93 | 4.22 | 4.48 | 4.77 | 5.08 | 5.38 | 5.73 | 6.11
x2 = 0.3 | 4.89 | 5.24 | 5.6 | 5.94 | 6.31 | 6.69 | 7.1 | 7.45 | 7.84
x2 = 0.4 | 6.39 | 6.62 | 6.87 | 7.22 | 7.6 | 7.91 | 8.25 | 8.62 | 9.02
x2 = 0.5 | 6.7 | 6.95 | 7.21 | 7.48 | 7.76 | 8.1 | 8.47 | 8.86 | 9.32
x2 = 0.6 | 6.58 | 6.9 | 7.24 | 7.5 | 7.81 | 8.16 | 8.54 | 9.01 | 9.52
x2 = 0.7 | 6.04 | 6.39 | 6.76 | 7.09 | 7.43 | 7.77 | 8.14 | 8.5 | 8.9
x2 = 0.8 | 4.95 | 5.3 | 5.68 | 5.96 | 6.26 | 6.51 | 6.79 | 7.11 | 7.47
x2 = 0.9 | 3.55 | 3.67 | 3.81 | 3.98 | 4.16 | 4.33 | 4.51 | 4.74 | 4.98

CC(=O)OC(c1ccccc1)C(Cl)(Cl)Cl (stereo not drawn) + CC(=O)O + O
solubility (g/100 g solution)
Details | 288.15 K | 293.15 K | 298.15 K | 303.15 K | 308.15 K | 313.15 K | 318.15 K | 323.15 K | 328.15 K
x2 = 0.4 | 0.229 | 0.34 | 0.495 | 0.65 | 0.966 | 1.43 | 1.81 | 2.64 | 3.12
x2 = 0.5 | 0.758 | 0.967 | 1.23 | 1.62 | 2.27 | 2.97 | 3.85 | 5.28 | 7.16
x2 = 0.6 | 1.45 | 2.06 | 2.67 | 3.47 | 4.47 | 5.57 | 7.52 | 10.1 | 13.4
x2 = 0.7 | 2.88 | 3.73 | 4.74 | 6.03 | 7.75 | 9.86 | 12.5 | 16.9 | 23.4
x2 = 0.8 | 4.78 | 6.15 | 7.58 | 9.47 | 12 | 15.1 | 19.5 | 25.6 | 33.9
x2 = 0.9 | 7.43 | 9.03 | 10.9 | 13.5 | 17 | 21.2 | 26.5 | 33.8 | 42.7

— the CheMixHub drug solubility set
